Experimental data published in publication PMC3947011 (ACS chemical biology, 2013).
Read-outs that look alike come from different tables or passages of the source.

Tests used:
Assay type in all cases: cell-based
E. coli (ATCC 25922) = system: E. coli (ATCC 25922)
[1] = system: K. pneumoniae (ATCC 13383)
[2] = system: P. aeruginosa (ATCC 27853)
[3] = system: Methicillin-resistant S. epidermidis (RP62A)
[4] = system: Vancomycin-resistant E. faecalis (ATCC 700802)
[5] = system: Methicillin-resistant S. aureus (ATCC 33591)

Pexiganan
MIC E. coli (E. coli (ATCC 25922); complete growth inhibition after 24 h, highest tested 25 μg/mL): 8 µg/mL
MIC E. coli (E. coli (ATCC 25922); value in parentheses): 3 µM
MIC K. pneumoniae ([1]; 24 h): 8 µg/mL
MIC K. pneumoniae ([1]; value in parentheses): 3 µM
MIC P. aeruginosa ([2]; 24 h): 16 µg/mL
MIC P. aeruginosa ([2]; value in parentheses): 6 µM
MIC S. epidermidis ([3]; 24 h): 8 µg/mL
MIC S. epidermidis ([3]; value in parentheses): 3 µM
MIC E. faecalis ([4]; 24 h): 32 µg/mL
MIC E. faecalis ([4]; value in parentheses): 12 µM
MIC S. aureus ([5]; 24 h): 16 µg/mL
MIC S. aureus ([5]; value in parentheses): 6 µM
